Like-named read-outs stand apart in the source and are kept apart here. Positions of bridges follow the written chain, without caps; N, C: chain ends. Residues, ends and D or L forms follow the SMILES beside them. *: point of attachment. Acm = CC(=O)NC*; tBu = CC(C)(C)*
Legend:
[1] = system: Escherichia coli (MG1655); conditions: pH 7.4
[2] = system: Staphylococcus aureus (NCTC 8530); conditions: pH 7.4
S. aureus = format: cell-based, Staphylococcus aureus
E. coli [3] = format: cell-based, Escherichia coli
E. coli [4] = format: cell-based, Escherichia coli; remark: listed apart in the source
P. aeruginosa [5] = experiment: Salt sensitivity assay (150 mM NaCl); format: cell-based, Pseudomonas aeruginosa; conditions: peptides at lethal concentrations
P. aeruginosa [6] = format: cell-based, Pseudomonas aeruginosa; conditions: peptide treated cells plated at fixed time intervals during 2 hrs of incubation
Experimental: The antibacterial activity of peptides was examined against Gram-negative bacteria Escherichia coli (MG1655), Pseudomonas aeruginosa (NCTC 6750) and Gram-positive bacteria Staphylococcus aureus (NCTC 8530) using colony counting assay. Bacteria were sub-cultured on nutrient broth (Difco, Detroit, MI, US) at 37°C to mid-logarithmic phase from an overnight grown culture. The cells were harvested and washed with 10 mM sodium phosphate buffer (pH 7.4). 100 μl of suspension containing 10^6 cfu/ml was incubated with varying concentration of peptides for 2 hrs at 37°C. The cells were spread on nutrient agar plates and incubated for 14–18 hrs at 37°C. The numbers of colony forming units (cfu) was counted and minimum concentration at which more than 99% of killing observed was taken as lethal concentration (LC). Fungicidal activity against Candida albicans (ATCC 18804) was also determined as described for the bacteria. […] The effect of loss of proton motif force (pmf) in bacteria and C. albicans on the antimicrobial activity of the peptides was determined by adding the metabolic inhibitor like carbonyl cyanide m-chlorophenylhydrazone (CCCP) (50 μM) into the cell suspension 20 mins prior to the peptides treatment. The rate of killing with respect to time was determined by plating the peptide treated cells at fixed time intervals during 2 hrs of incubation. […]

[7] = system: Pseudomonas aeruginosa (NCTC 6750); conditions: NCTC 6750, 2 h, pH 7.4
[8] = system: Candida albicans (ATCC 18804); conditions: ATCC 18804, 2 h

CC[C@H](C)[C@@H]1NC(=O)[C@H](CCCNC(=N)N)NC(=O)[C@H](Cc2ccc(O)cc2)NC(=O)[C@H](CCC(=O)O)NC(=O)[C@H](CCC(N)=O)NC(=O)[C@H](CO)NC(=O)[C@H](CCCNC(=N)N)NC(=O)[C@H](CCCCN)NC(=O)[C@H](CCCCN)NC(=O)[C@H](CCCNC(=N)N)NC(=O)[C@@H](NC(=O)[C@H](CCCNC(=N)N)NC(=O)[C@H](C)NC(=O)[C@@H](NC(=O)CNC(=O)[C@H](Cc2ccc(O)cc2)NC(=O)CNC(=O)[C@H](CO)NC(=O)[C@H](CO)NC(=O)[C@@H](NC(=O)[C@H](CCCNC(=N)N)NC(=O)[C@H](CC(=O)O)NC(=O)[C@H](CC(C)C)NC(=O)[C@H](CCC(=O)O)NC(=O)[C@H](Cc2ccccc2)NC(=O)[C@@H](N)CCC(=O)O)[C@@H](C)CC)[C@@H](C)O)CSSC[C@@H](C(=O)N[C@@H](CC(C)C)C(=O)N[C@@H](CCCNC(=N)N)C(=O)N[C@@H](CCCCN)C(=O)O)NC(=O)[C@H](CO)NC(=O)[C@H](C)NC(=O)[C@H](Cc2ccc(O)cc2)NC(=O)[C@H]([C@@H](C)O)NC(=O)[C@H](CC(N)=O)NC(=O)[C@@H]2CCCN2C(=O)[C@H](CO)NC(=O)[C@H](CCCNC(=N)N)NC(=O)CNC1=O [H4-1d[S]] (H-EFELDRISSGYGTARCRKKRSQEYRIGRSPNTYASCLRK-OH; disulfide 16-36)
lethal concentration (LC) against E. coli [1]: 3 µM
lethal concentration (LC) against S. aureus [2]: 5 µM

CC[C@H](C)[C@@H]1NC(=O)[C@H](CCCNC(=N)N)NC(=O)[C@H](Cc2ccc(O)cc2)NC(=O)[C@H](CCC(=O)O)NC(=O)[C@H](CCC(N)=O)NC(=O)[C@H](CO)NC(=O)[C@H](CCCNC(=N)N)NC(=O)[C@H](CCCCN)NC(=O)[C@H](CCCCN)NC(=O)[C@H](CCCNC(=N)N)NC(=O)[C@@H](NC(=O)[C@H](CCCNC(=N)N)NC(=O)[C@H](C)NC(=O)[C@@H](NC(=O)CNC(=O)[C@H](Cc2ccc(O)cc2)NC(=O)CNC(=O)[C@H](CO)NC(=O)[C@H](CO)NC(=O)[C@@H](NC(=O)[C@H](CCCNC(=N)N)NC(=O)[C@H](CC(=O)O)NC(=O)[C@H](CC(C)C)NC(=O)[C@@H](N)CCC(=O)O)[C@@H](C)CC)[C@@H](C)O)CSSC[C@@H](C(=O)N[C@@H](CC(C)C)C(=O)N[C@@H](CCCNC(=N)N)C(=O)N[C@@H](CCCCN)C(=O)O)NC(=O)[C@H](CO)NC(=O)[C@H](C)NC(=O)[C@H](Cc2ccc(O)cc2)NC(=O)[C@H]([C@@H](C)O)NC(=O)[C@H](CC(N)=O)NC(=O)[C@@H]2CCCN2C(=O)[C@H](CO)NC(=O)[C@H](CCCNC(=N)N)NC(=O)CNC1=O [H4-1d[S]ΔEF] (H-ELDRISSGYGTARCRKKRSQEYRIGRSPNTYASCLRK-OH; disulfide 14-34; N-terminus and C-terminus assumed)
lethal concentration (LC) against E. coli [1]: 3 µM
lethal concentration (LC) against S. aureus [2]: 5 µM

CC[C@H](C)[C@@H]1NC(=O)[C@H](CCCNC(=N)N)NC(=O)[C@H](Cc2ccc(O)cc2)NC(=O)[C@H](CCC(=O)O)NC(=O)[C@H](CCC(N)=O)NC(=O)[C@H](CO)NC(=O)[C@H](CCCNC(=N)N)NC(=O)[C@@H]2CSSC[C@@H](C(=O)N[C@@H](CC(C)C)C(=O)N[C@@H](CCCNC(=N)N)C(=O)N[C@@H](CCCCN)C(=O)O)NC(=O)[C@@H]3CSSC[C@H](NC(=O)[C@@H](NC(=O)[C@H](CCCNC(=N)N)NC(=O)[C@H](CC(=O)O)NC(=O)[C@H](CC(C)C)NC(=O)[C@@H](N)CCC(=O)O)[C@@H](C)CC)C(=O)NCC(=O)N[C@@H](Cc4ccc(O)cc4)C(=O)NCC(=O)N[C@@H]([C@@H](C)O)C(=O)N[C@@H](C)C(=O)N[C@@H](CCCNC(=N)N)C(=O)N[C@@H](CSSC[C@H](NC(=O)[C@H](CCCNC(=N)N)NC(=O)CNC1=O)C(=O)N1CCC[C@H]1C(=O)N[C@@H](CC(N)=O)C(=O)N[C@@H]([C@@H](C)O)C(=O)N[C@@H](Cc1ccc(O)cc1)C(=O)N[C@@H](C)C(=O)N3)C(=O)N[C@@H](CCCNC(=N)N)C(=O)N[C@@H](CCCCN)C(=O)N[C@@H](CCCCN)C(=O)N2 [HBD4, Human β-defensin 4] (H-ELDRICGYGTARCRKKCRSQEYRIGRCPNTYACCLRK-OH; disulfide 6-33, 13-27, 17-34; N-terminus and C-terminus assumed)
activity against S. aureus in the presence of 150 mM NaCl (S. aureus): significant loss in activity
activity against E. coli in the presence of 150 mM NaCl (E. coli [3]): significant loss in activity
salt sensitivity against E. coli in the absence of pmf (E. coli [3]): attenuation of activity by NaCl is not observed
lethal concentration (LC) against E. coli ([1]; MG1655, 2 h): 5 (0.53) μM
lethal concentration (LC) against S. aureus ([2]; NCTC 8530, 2 h): 15 (0.47) μM
time of incubation for killing of E. coli (E. coli [4]): ≤ 30 min
activity against P. aeruginosa in the presence of 150 mM NaCl (P. aeruginosa [5]): significant loss in activity
rate of killing of P. aeruginosa (P. aeruginosa [6]): more rapidly as compared to the analogs
lethal concentration (LC) against P. aeruginosa [7]: 12 (1.35) μM
minimum fungicidal concentration (MFC) against C. albicans [8]: 7.5 (0.91) μM

CC[C@H](C)[C@@H]1NC(=O)[C@H](CCCNC(=N)N)NC(=O)[C@H](Cc2ccc(O)cc2)NC(=O)[C@H](CCC(=O)O)NC(=O)[C@H](CCC(N)=O)NC(=O)[C@H](CO)NC(=O)[C@H](CCCNC(=N)N)NC(=O)[C@H](CCCCN)NC(=O)[C@H](CCCCN)NC(=O)[C@H](CCCNC(=N)N)NC(=O)[C@@H](NC(=O)[C@H](CCCNC(=N)N)NC(=O)[C@H](C)NC(=O)[C@@H](NC(=O)CNC(=O)[C@H](Cc2ccc(O)cc2)NC(=O)CNC(=O)[C@H](CSC(C)(C)C)NC(=O)[C@H](CSCNC(C)=O)NC(=O)[C@@H](NC(=O)[C@H](CCCNC(=N)N)NC(=O)[C@H](CC(=O)O)NC(=O)[C@H](CC(C)C)NC(=O)[C@@H](N)CCC(=O)O)[C@@H](C)CC)[C@@H](C)O)CSSC[C@@H](C(=O)N[C@@H](CC(C)C)C(=O)N[C@@H](CCCNC(=N)N)C(=O)N[C@@H](CCCCN)C(=O)O)NC(=O)[C@H](CSCNC(C)=O)NC(=O)[C@H](C)NC(=O)[C@H](Cc2ccc(O)cc2)NC(=O)[C@H]([C@@H](C)O)NC(=O)[C@H](CC(N)=O)NC(=O)[C@@H]2CCCN2C(=O)[C@H](CSC(C)(C)C)NC(=O)[C@H](CCCNC(=N)N)NC(=O)CNC1=O [Peptide H4-1dΔEF] (H-ELDRIC(Acm)C(tBu)GYGTARCRKKRSQEYRIGRC(tBu)PNTYAC(Acm)CLRK-OH; disulfide 14-34; N-terminus and C-terminus assumed)
lethal concentration (LC) against E. coli [1]: 2.5 µM
lethal concentration (LC) against S. aureus [2]: 3.5 µM
